row,Structure (SMILES),melting point
1,CC(=O)Nc1nc2cc(-c3ccc(C=C4SC(=O)NC4=O)cn3)cc(C34CC5CC(CC(C5)C3)C4)c2o1,> 360 °C
2,NC(=O)C1CCc2ccccc21 (stereo not drawn),151 to 154 °C
3,CON1CCCNC1=C[N+](=O)[O-],84 to 85 °C
4,CCCc1ccc(-c2cc(F)c(-c3ccc(CC)s3)c(F)c2)cc1,45 °C
5,O=C1CC(CCO)c2ccccc2N1 (stereo not drawn),119 to 120 °C
6,CNC(=O)c1ccnc(N2CCN(Cc3ccc(F)cc3)C2=O)c1,118 to 120 °C
7,Cc1cc(-c2cc(C(F)(F)F)n3ncc(-c4nc(-c5cccc(S(N)(=O)=O)c5)no4)c3n2)ccc1C(F)(F)F,270 °C
8,CC1(C)CON(Cc2c(F)cccc2Cl)C1=O,49 to 51 °C
9,Cc1c(NC(=O)CC(C)(C)C)cc2c(c1C)OC(C)(C)C2(O)c1ccc(C(C)C)cc1 (stereo not drawn),119 to 121 °C
10,COc1ccc(Cn2c(=O)n(C3CCCCC3)c3cc(Cl)ccc32)c(OC)c1,112 °C
11,CC(C)n1nc(-c2sc(NC(=O)Oc3ccccc3)nc2-c2ccccc2)ccc1=O,205 to 207 °C
12,CC(C)Oc1ccc(-c2ccc3c(c2)C=C(C(=O)Nc2ccc(CN(C)C4CCOCC4)cc2)CCS3(=O)=O)cc1,245 to 247 °C
13,NCC1Cc2cc(Cl)cc(-c3ccoc3)c2O1 (stereo not drawn),> 250 °C
14,C1=CSC(Sc2ccccc2)(c2ccc(Sc3ccccc3)s2)C1 (stereo not drawn),110 to 112 °C
15,COc1ccc(C2(O)CCC3(CC2)OCCO3)c2c1OCCO2,94 to 96 °C
16,O=c1c(-c2ccc(O)cc2)coc2ccccc12,237 to 238 °C
17,CCOc1cc(O)cc2c1C(=O)N(CSc1ccccc1)S2(=O)=O,204 to 205 °C
18,Nc1nc2c3ccccc3ccn2n1,164 to 165 °C
19,N#Cc1cc(F)ccc1N1CCN(Cc2cn3cc(Cl)ccc3n2)CC1,179 to 180 °C
20,COC(=O)CN1C(=O)CN=C(c2ccccc2)c2cc(Cl)ccc21,137 to 138 °C
21,COc1ccc(C#Cc2ccc(OC)cc2)cc1,140 to 142 °C
22,N#Cc1ccc(-c2ccc(O)c(C(F)(F)F)c2)cc1,201 to 203 °C
23,Cc1cc(NC(=O)Cc2ccsc2)nc(C)c1Br,211 °C
24,CC(C)CN1C(=O)C(C)(C)C(=O)Nc2cc(C#N)ccc21,204 to 205 °C
25,COc1ccc(C#CCSc2ccc(OCC(=O)O)c(C)c2)cc1,143 to 144 °C

row,Structure (SMILES),melting point
1,CCOC(=O)CSC(=S)N1Cc2[nH]c3ccccc3c2CC1C(=O)O (stereo not drawn),190 to 192 °C
2,CCOC(=O)Cn1c2c([nH]c(=O)c1=O)CCC1=C2C=C(n2ccc(N3CCN(c4ccc([N+](=O)[O-])cc4)CC3)c2)CC1,229 °C
3,Cc1nc2c(s1)-c1nc(NCc3ccccc3)ncc1CC2,152 to 154 °C
4,Cc1cc(OCc2ccc(-c3ccccc3-c3nnn(C(c4ccccc4)(c4ccccc4)c4ccccc4)n3)cc2)c(C(=O)c2ccccc2)c(C)n1,84 to 91 °C
5,O=C(NCCCc1ccncc1)N1CCOCC1,94 to 98 °C
6,Cc1ccc2c(c1)CCO2,45 to 48 °C
7,CC1CN(C(=O)CO)C(C)(C)O1 (stereo not drawn),50 to 53 °C
8,CCCn1cc2c(C3C(=O)Nc4ccc(Br)cc43)nc(NC3CCNC3)nc2n1 (stereo not drawn),315 to 320 °C
9,CC(c1cc(C#N)ncn1)C(O)(Cn1cncn1)c1ccc(F)cc1F (stereo not drawn),148 to 149 °C
10,OC(CN1CCNC1=S)c1ccc(F)cc1 (stereo not drawn),130 °C
11,O=Cc1ccc(OCc2ccccc2)c(CCl)n1,72 to 73 °C
12,CC(SSc1ccccc1C(=O)Nc1ccc(S(N)(=O)=O)cc1)C(=O)NCC(=O)O (stereo not drawn),254 to 256 °C
13,COc1ccc(NN=C(Sc2ccc(C(C)(C)C)cc2)C(C)=O)cc1,111 to 113 °C
14,O=C1C2=C(NC3(C=N2)OCCO3)c2ccccc21,296 to 298 °C
15,Cc1c(C(=O)c2ccc(Br)c3ccccc23)c2cccc(C(F)(F)F)c2n1CCN1CCOCC1,160 °C
16,COn1nnc2ccc(Cn3ccnc3)cc21,132 °C
17,O=S(=O)(Nc1cccc(CCOCc2csc(-c3ccc(C(F)(F)F)cn3)n2)c1)C(F)(F)F,116 to 117 °C
18,COc1cc(OC)cc(-c2oc3ncnc(N4CCCCC4)c3c2-c2ccccc2)c1,152 to 153 °C
19,COC(=O)C(C)(C)Cc1c(SC(C)(C)C)c2cc(OCc3ccc4cc(F)ccc4n3)ccc2n1Cc1ccc(Cl)cc1,165 to 167 °C
20,O=C(CCCCl)c1ccc2ccccc2c1O,73 to 79 °C
21,Clc1cccc(Oc2nnc(Cc3ccncc3)c3ccccc23)c1,143 to 145 °C
22,CCOc1cc2c(cc1OCC)C(=C(C#N)SCC(O)CN1CCOCC1)NCC2 (stereo not drawn),97 °C
23,C=CCc1cc(Cc2cnc(N)nc2N)c2ccc(C)nc2c1OC,219 to 222 °C
24,O=[N+]([O-])c1oc2c(CCO)cccc2c1-c1ccccc1,133 to 136 °C
25,CN(C)c1ncc(-c2cccc(-n3cnc4cc(-n5cccc5)ccc43)c2)cn1,237 to 238 °C

row,Structure (SMILES),melting point
1,CS(=O)(=O)Nc1nn(CCN2CCCCC2)cc1-c1ccccc1,121 °C
2,O=C(O)c1cc(Br)ccc1OCC(F)(F)F,126 to 128 °C
3,OC(c1ccc2c(c1)OCCN2)(C(F)(F)F)C(F)(F)F,119 to 120 °C
4,CC(C)C(NC(=O)Nc1ccc(C(=O)NCC(=O)N(C)C)cc1)C(=O)N1CCCC1C(=O)NC(C(=O)C(F)(F)F)C(C)C (mixture of isomers),115 to 125 °C
5,COC(=O)c1ccc(CNC(=O)[C@@H]2Cc3ccccc3N2S(=O)(=O)c2ccc(I)cc2)cc1,80 to 85 °C
6,CN1CCOc2cc(N)ccc2C1=O,169 to 170 °C
7,COc1ccc(-c2cncc(C#N)c2Nc2ccc3[nH]ccc3c2C)cc1OC,130 to 133 °C
8,Oc1c(CN2CCCC2)cc(Nc2ccnc3ccccc23)cc1CN1CCCC1,67 °C
9,CC(C)C(NC(=O)OCc1csc(N2CCCC2)n1)C(=O)NN(C(=O)OCc1cncs1)C(Cc1ccccc1)CC(O)CCc1ccccc1 (stereo not drawn),165 to 167 °C
10,O=C(OCC(O)CO)c1cc(F)ccc1Nc1ccnc2cc(C(F)(F)F)ccc12 (stereo not drawn),167 to 168 °C
11,CC(C(=O)O)c1ccc2cc(OCc3ccc4ccc(Cl)cc4n3)ccc2c1 (stereo not drawn),188 to 190 °C
12,CC=CC=C[C@@H]1C[C@H](CC(=O)O)OC2(CCCCC2)O1 (relative stereo),144 to 146 °C
13,CCSc1ccc(NC(=S)NC(=O)OC)c([N+](=O)[O-])c1,152 °C
14,FC(F)(F)c1ccc(-c2cc(Oc3cccc4sccc34)ncn2)cc1,122 °C
15,NS(=O)(=O)c1ccc(-c2noc(-c3cnn4c(C5CC5)cc(-c5ccc(C(F)(F)F)cc5)nc34)n2)s1,290 °C
16,Cc1ccc(S(=O)(=O)NC(C)(C)CO)cc1NC(=O)c1cnn2c(C3CC3)cc(-c3ccc(C(F)(F)F)cc3)nc12,232 to 233 °C
17,Cc1cccc(COc2cccnc2NC(=S)Nc2ccc(Cl)cc2)c1F,184 to 187 °C
18,Nc1[nH]c(=O)[nH]c(=O)c1N,144 to 146 °C
19,c1cc(-c2n[nH]c3c2Cc2ccc(CN4CCSCC4)cc2-3)cs1,193 to 195 °C
20,Cc1cc(C)c(-n2ccc3c(OC(C)C)nn(C)c(=O)c32)c(C)c1,108 to 111 °C
21,Cc1nc(-c2cccc(C(F)(F)F)c2)ccc1C=O,61 to 63 °C
22,COC(=O)c1ccc2ccn(Cc3ccc(OCc4ccc5ccccc5n4)cc3)c2c1,125 to 126 °C
23,Cc1cc2c(cc1-c1ccc(C=O)s1)C(C)(C)CCC2(C)C,130 to 135 °C
24,N#CCc1ccc(OC(F)F)c(OC2CCCC2)c1,39 to 41 °C
25,CCc1c(C(=O)OC)ncc2[nH]c3cc(OC)c(OC)cc3c12,207 to 209 °C

row,Structure (SMILES),melting point
1,COC(=O)CC[C@@H](C(N)=O)N1Cc2c(OCc3ccc(CN4CCOCC4)cc3)cccc2C1=O,66 to 68 °C
2,COc1cc(-c2nc3ccc(OCCN4CCOCC4)cc3n2Cc2ccccc2C(F)(F)F)cc(OC)c1OC,175 °C
3,C=CCOC(=O)c1ccc(CC(=O)Nc2ccc3c(c2)C(C)(C)CCC3(C)C)cc1,49 to 50 °C
4,O=C(O)c1cc(C(=O)O)c2cc(Cc3ccc(F)cc3)cnc2c1O,279 to 282 °C
5,CC12CC(F)C3c4ccc(O)cc4CC(CCCCCBr)C3C1CCC2=O (stereo not drawn),178 °C
6,NNC1NS(=O)(=O)c2ccccc21 (stereo not drawn),249 °C
7,O=C(CN1C(=O)c2ccccc2C1=O)Nc1cccc(C(F)(F)F)c1,235 °C
8,Cc1cc(O)c(C)c(Br)c1C,86 to 88 °C
9,N#Cc1ccc(N(CCCCOc2ccc(O)cc2)n2cnnc2)cc1,156 to 159 °C
10,CC(=O)OC1CSC(Oc2cccc(-c3ccc(C)o3)c2)C(OC(C)=O)C1OC(C)=O (stereo not drawn),132 °C
11,CC(C)(C)Cc1nc2cc(S(=O)(=O)c3ccccc3)ccc2n1CC1CC1,173 °C
12,CC(C)(C)COc1ccc(NC(=O)c2cc3ccccc3n2CC(=O)O)cc1C#N,194 to 195 °C
13,CCNCCC1CCc2cc(OCc3ccc(-c4ccccc4)cc3)ccc2C1 (stereo not drawn),83 to 85 °C
14,NC(=O)CC[C@H](NC(=O)OCc1ccccc1)C(=O)N[C@@H](Cc1ccc(O)cc1)C(=O)OCc1ccccc1,165 to 170 °C
15,CC(C)Nc1ncnc2sc([N+](=O)[O-])cc12,200 °C
16,CC(C)(C)OCC1C(=O)C(C)(C)C(=O)N1c1ccc(C#N)c(Cl)c1 (stereo not drawn),124 to 125 °C
17,COc1cccc(-c2cc(=O)c3ccccc3[nH]2)c1SCc1ccccc1,> 250 °C
18,CCCCCCCCC1CC(c2ccc(-c3ccc(CCCCC)cc3)cc2)OC1=O (stereo not drawn),114 to 118 °C
19,CC(C)Cn1nc(-c2ccc(F)c(F)c2)cc(C(=O)O)c1=O,163 to 164 °C
20,CC(=O)NCc1ccc2c(c1)N(C1CCN(CCc3ccc(F)cc3)CC1)CC2(C)C,131 to 133 °C
21,CSc1ccc(-c2coc3ccc(-c4nnc(O)o4)cc23)cc1,211 to 212 °C
22,Cc1nnc2n1-c1ccccc1C(c1ccc(Cl)cc1)=NN2Cc1ccc(N)cc1,234 to 237 °C
23,CCOCc1nc2c(N)nc3cc(N4CCCCS4(=O)=O)ccc3c2n1CCCOC(C)C,172 to 174 °C

# — a melting point compilation (Tetko et al.; mined from patent text by program, amines drawn as free bases though some values may be those of a salt)
